Here are results for 14 molecules from patent publication US20030163846A1, “Process for the genetic modification of a plant” (priority 2000, published 2003).

Series [1] deals with T1, AtSUT2 (Arabidopsis thaliana, UniProt O80605).
T1 construct: expressed in transfected cells; host or cells: Saccharomyces cerevisiae SEY6210, expression vector pDR196
T1 sequence (O80605 1-594): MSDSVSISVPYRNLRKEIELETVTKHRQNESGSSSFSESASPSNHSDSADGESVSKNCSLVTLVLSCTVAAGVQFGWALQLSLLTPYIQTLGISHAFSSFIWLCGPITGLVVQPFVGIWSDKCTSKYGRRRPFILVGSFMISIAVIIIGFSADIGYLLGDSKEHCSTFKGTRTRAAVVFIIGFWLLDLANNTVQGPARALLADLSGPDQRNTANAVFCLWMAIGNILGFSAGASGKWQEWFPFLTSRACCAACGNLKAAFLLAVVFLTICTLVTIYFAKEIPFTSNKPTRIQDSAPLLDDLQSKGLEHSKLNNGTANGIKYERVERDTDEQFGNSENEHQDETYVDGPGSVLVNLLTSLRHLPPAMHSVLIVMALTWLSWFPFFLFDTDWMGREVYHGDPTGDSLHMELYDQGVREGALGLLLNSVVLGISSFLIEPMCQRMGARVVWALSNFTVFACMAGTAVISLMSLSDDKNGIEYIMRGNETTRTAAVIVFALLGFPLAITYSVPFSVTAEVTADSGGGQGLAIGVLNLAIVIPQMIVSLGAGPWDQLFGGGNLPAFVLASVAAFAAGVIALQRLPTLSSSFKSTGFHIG
As to the kind of experiment: substrate specificity and inhibition of saccharose uptake by AtSUT2 in yeast. As to conditions: for competition with 14C-saccharose uptake: 1 mM saccharose, competitively with other sugars and sugar alcohols. Type of series: cell-based. How it is done:
The saccharose uptake by AtSUT2 was pH-dependent, and the highest uptake rates were measured at a pH of 4.0. […] To determine the substrate specificity of AtSUT2, the saccharose uptake (1 mM saccharose) was measured competitively with other sugars and sugar alcohols.

Series [2] deals with SUT4. As to the kind of experiment: stimulation/inhibition of uptake of 14C-saccharose by means of SUT4 (FIG. 5C). Type of series: cell-based. How it is done:
(§1) For the saccharose uptake tests, yeast was cultivated in a liquid minimal medium containing glucose, up to an OD623 of approximately 0.8. Cells were collected by means of centrifugation, washed in 25 mM sodium phosphate buffer (pH 5.5), and suspended in the same buffer at an OD623 of 20. The uptake tests were initiated by adding glucose ending at a final concentration of 10 mM to the yeast cells one minute before adding ^14C-saccharose. Following incubation at 30° C. while stirring, cells were collected by means of vacuum filtration on fiberglass filters (1-5 minutes), washed twice with 4 mL 10 mM saccharose (at the freezing point), and the radioactivity was determined using a liquid scintillation counter. […] A significant difference compared with the vector controls is apparent.
The stimulation of the uptake of ^14C-saccharose by means of SUT4 through glucose and the inhibition through an electron transport inhibitor (antimycin A and the protonophore CCCP is shown in FIG. 5C).

In series [3] the test system is leaf blades. Particulars: high affinity/low capacity system, cited from earlier work.
Series [4] can be described thus: 14C-saccharose uptake tests in yeast expressing SUT4 (SUSY7/ura3). Type of series: cell-based. How it is done: The yeast strain SUSY7/ura3 is a modified version of SUSY7 (Riesmeier et al., EMBO J. (1992) 11, 4705-4713), which contains a deletion of a portion of the URA3 gene and, as a result, permits selection for uracil auxotrophy. Media that contained the 1.7 g/L yeast nitrogen base without amino acids (Difco), 2% saccharose, 20 mg/L tryptophane, and 1.5% agarose, pH 5.0, were used to analyze yeast growth on a saccharose medium.
as §1
Data for the kinetic analysis were obtained for SUT4 from a nonlinear regression of the uptake measurements using the Michaelis-Menten equation. Km was represented as an average of eight determinations using three independent transformants±standard deviation. The KM value for saccharose that was determined was 11.6±0.6 mM (at a pH of 5.5) and 5.9±0.8 mM (at a pH of 4.0) for SUT4 from arabidopsis. For SUT4 from Solanum tuberosum the KM value was 6.0±1.2 mM (pH 4.0) (see FIG. 5B).

The nature of series [5]: 14-C saccharose uptake tests in yeast strain SEY6210 expressing AtSUT2, StSUT1 or chimeric proteins. Type of series: cell-based. As to conditions: for Km: AtSUT2 at a pH of 4. How it is done:
It was shown that the saccharose uptake by yeast cells that express AtSUT2 was linear in the first five minutes of the test. During this period, 0.1 nmol saccharose accumulated in 10^8 cells. […] By contrast, the transport rate with StSUT1-expressing cells was 400 times greater than with AtSUT2-expressing cells. […] Using the Michaelis-Menten equation and a nonlinear regression analysis, a KM value of 11.7±1.2 mM
Table: KM values for saccharose of the saccharose transporters StSUT1 and AtSUT2 as well as of chimeric proteins in which the N-terminal regions or central cytoplasmic loops are exchanged between the two transporters. The values were determined as mean values±standard errors from at least three different measurements. Different letters indicate significant differences (p<0.05).

Take `N#CC(C#N)=NNc1cccc(Cl)c1` [CCCP]: in series [1], the “inhibition of saccharose transport by means of AtSUT2” value was “inhibited”. Further, the “effect on uptake of 14C-saccharose by means of SUT4” value in series [2] is given as “inhibition”.

In the case of `O=C[C@H](O)[C@@H](O)[C@@H](O)[C@H](O)CO` [galactose], in series [1], the “competition with 14C-saccharose uptake” value is “only the saccharose and to a lesser extent maltose were able to compete significantly”.

In the case of `OC[C@@H](O)[C@@H](O)[C@H](O)[C@H](O)CO[C@H]1O[C@H](CO)[C@@H](O)[C@H](O)[C@H]1O` [glucomannitol], the “competition with 14C-saccharose uptake” value in series [1] was “only the saccharose and to a lesser extent maltose were able to compete significantly”.

For the molecule `OC[C@H]1O[C@H](OC[C@H]2OC(O)(CO)[C@@H](O)[C@@H]2O)[C@H](O)[C@@H](O)[C@@H]1O` (some centres unmarked) [isomaltulose], the “competition with 14C-saccharose uptake” value in series [1] is “only the saccharose and to a lesser extent maltose were able to compete significantly”.

On to `OC[C@@H](O)[C@@H](O)[C@H](O)[C@H](O)CO` [mannitol], for which the “competition with 14C-saccharose uptake” value in series [1] was “only the saccharose and to a lesser extent maltose were able to compete significantly”.

As for `OC[C@H]1O[C@@H](O[C@H]2[C@H](O)[C@@H](O)C(O)O[C@@H]2CO)[C@H](O)[C@@H](O)[C@H]1O` (some centres unmarked) [lactose], the “competition with 14C-saccharose uptake” value in series [1] was “only the saccharose and to a lesser extent maltose were able to compete significantly”.

Consider `OC[C@H](O)[C@@H](O)[C@H](O)[C@H](O)CO[C@H]1O[C@H](CO)[C@@H](O)[C@H](O)[C@H]1O` [glucosorbitol], for which, in series [1], the “competition with 14C-saccharose uptake” value was “only the saccharose and to a lesser extent maltose were able to compete significantly”.

Consider `OC[C@H]1O[C@@](CO)(O[C@H]2O[C@H](CO)[C@@H](O)[C@H](O)[C@H]2O)[C@@H](O)[C@@H]1O` [saccharose], for which the “competition with 14C-saccharose uptake” value in series [1] is listed as “able to compete significantly”. Further, the Km in series [3] (read-out: Km of saccharose intake) is 2.7 mM. In series [3], the “Vmax of saccharose intake” value is on record as 0.7 nmol cm^−2 min^−1.

Take antimycin A: the “inhibition of saccharose transport by means of AtSUT2” value in series [1] is given as “inhibited”. In series [2], the “effect on uptake of 14C-saccharose by means of SUT4” value is reported as “inhibition”.

For `OC[C@H]1O[C@H](OC[C@H]2O[C@H](O[C@]3(CO)O[C@H](CO)[C@@H](O)[C@@H]3O)[C@H](O)[C@@H](O)[C@@H]2O)[C@H](O)[C@@H](O)[C@H]1O` [raffinose], the “competition with 14C-saccharose uptake” value in series [1] is “only the saccharose and to a lesser extent maltose were able to compete significantly”.

On to `OC[C@@H](O)[C@@H](O)[C@H](O)[C@@H](O)CO` [sorbitol], for which the “competition with 14C-saccharose uptake” value in series [1] is “only the saccharose and to a lesser extent maltose were able to compete significantly”.

B1: StSUT4: saccharose transporter SUT4 from Solanum tuberosum, amino acid sequence SEQ ID no. 28 (protein, listed as Solanum tuberosum)
chain: MPEIERHRTRHNRPAIREPVKPRVPLRLLFRVASVAGGIQFGWALQLSLLTPYVQELGIPHAWASIIWLCGPLSGLLVQPLVGHMSDKCTSRFGRRRPFIVAGAVSIMIAVLIIGFSADIGWLLGDRGEIKVRAIAAFVVGFWLLDVANNMTQGPCRALLADLTQKDHRRTRVANAYFSLFMAIGNILGFATGSYSGWFKIFPFTLNTACTINCANLKAAFIIDIIFIATTTCISISAANEQPLDPSRGSSHTREEIGESSHGQEEAFLWELFGIFKYFPGVVWVILLVTALTWIGWFPFLLFDTDWFGREIYGGEPNDGKNYSAGVRMGSLGLMLNSVLLGLTSLFMEKLCRKWGAGFTWGVSNVVMSLCFIAMLIITAVRSNIDIGQGLPPDGIVIAALVVFSILGIPLAITYSVPYALVSSRIDALGLGQGLSMGVLNLAIVFPQIVVSLGSGPWDELFGGGNSPAFVVAALSAFAGGLIAILAIPRTRVEKPKIFA
Take B1: the “functional saccharose transporter (uptake of 14C-saccharose vs vector controls)” value in series [4] (FIG. 5A) is reported as “functional saccharose transporters”. In series [4] (pH 4.0, Michaelis-Menten nonlinear regression, average ± standard deviation), the Km worked out at 6 ± 1.2 mM.

B2: AtSUT2: SUT2 from Arabidopsis thaliana, SEQ ID no. 7; low-affinity saccharose transporter, sensor and/or regulator (protein, listed as Arabidopsis thaliana)
chain: T1 sequence (O80605 1-594)
Consider B2, for which, in series [5], the “pH of highest uptake rates” value was 4.0. Further, the “saccharose accumulated in 10^8 cells” value in series [5] (first five minutes of the test, in 10^8 cells) is 0.1 nmol. The “uptake of saccharose compared with yeast cells expressing empty vector pDR196” value in series [5] (p<0.05) is given as “significantly higher”. Further, the “saccharose uptake at a pH of 6” value in series [5] (pH of 6) is given as “no further saccharose uptake was measured”. For the same molecule, the Vmax in series [5] (table) is 1.5 ± 0.1 nmol saccharose min^−1 10^8 ce. In series [5] (yeast SEY6210), the Vmax is recorded as 1.5 nmol·min^−1 10^8 cells^−1 and the Km is 11.7 mM.

B3: StSUT1: high-affinity saccharose transporter SUT1 from Solanum tuberosum, SEQ ID no. 23 (protein, listed as Solanum tuberosum)
chain: MENGTKREGLGKLTVSSSLQVEQPLAPSKLWKIIVVASIAAGVQFGWALQLSLLTPYVQLLGIPHKFASFIWLCGPISGMIVQPVVGYYSDNCSSRFGRRRPFIAAGAALVMIAVFLIGFAADLGHASGDTLGKGFKPRAIAVFVVGFWILDVANNMLQGPCRALLADLSGGKSGRMRTANAFFSFFMAVGNILGYAAGSYSHLFKVFPFSKTKACDMYCANLKSCFFIAIFLLLSLTTIALTLVRENELPEKDEQEIDEKLAGAGKSKVPFFGEIFGALKELPRPMWILLLVTCLNWIAWFPFFLYDTDWMAKEVFGGQVGDARLYDLGVRAGAMGLLLQSVVLGFMSLGVEFLGKKIGGAKRLWGILNFVLAICLAMTILVTKMAEKSRQHDPAGTLMGPTPGVKIGALLLFAALGIPLAATFSIPFALASIFSSNRGSGQGLSLGVLNLAIVVPQMLVSLVGGPWDDLFGGGNLPGFVVGAVAAAASAVLALTMLPSPPADAKPAVAMGGFH
In the case of B3, in series [5], the “KM value for saccharose, fold lower than AtSUT2” value turned out to be 10 times and the “transport rate relative to AtSUT2-expressing cells” value is listed as 400 times. Moreover, the Vmax in series [5] (table) was 210.2 ± 5.7 nmol saccharose min^−1 10^8 ce. Further, in series [5] (yeast SEY6210), the Vmax is recorded as 210.2 nmol·min^−1 10^8 cells^−1 and the Km came out at 1.7 mM.

Broadly, the Km is the substrate concentration at which the rate is half of its maximum.
